A word on the IC50: it is the point on the concentration scale where inhibition reaches its midpoint.

A value given as a limit tells only on which side of the number the result lay.

In one assay the target is T1, rhJAK3 (Homo sapiens, UniProt P52333).
T1 construct: recombinant purified GST-tagged catalytic domain for each enzyme; purchased Invitrogen PV3855
T1 sequence (P52333 822-1111 limits assumed): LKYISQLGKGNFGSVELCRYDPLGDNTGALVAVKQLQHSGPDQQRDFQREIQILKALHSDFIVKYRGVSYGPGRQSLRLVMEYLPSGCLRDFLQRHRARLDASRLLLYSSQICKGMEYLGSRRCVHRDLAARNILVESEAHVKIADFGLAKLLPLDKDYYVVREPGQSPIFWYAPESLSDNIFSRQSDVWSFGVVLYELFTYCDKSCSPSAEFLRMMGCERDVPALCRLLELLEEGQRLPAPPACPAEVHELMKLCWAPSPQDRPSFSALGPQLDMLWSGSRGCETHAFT
Put plainly: JAK Biochemical HTRF Assay (JAK3). The following applies: recombinant purified GST-tagged catalytic domain, HTRF format, [ATP] 1.7 μM; read-out: JAK3 IC50. (Time-resolved FRET reads energy transfer from a long-lived donor to a nearby acceptor.)
As to `C[C@@H](Nc1cncc(-c2c[nH]c3ncc(CN4CCC(F)C4)cc23)n1)C(=O)NCC(F)(F)F` (stereo partly drawn) [Example 15-8, N^2-(6-{5-[(3-fluoropyrrolidin-1-yl)-methyl]-1H-pyrrolo[2,3-b]pyridin-3-yl}-pyrazin-2-yl)-N-(2,2,2-trifluoroethyl)-D-alaninamide], the IC50 lay in the range of 10 to 100 nM. `C[C@@H](Nc1cncc(-c2c[nH]c3ncc(-c4ccccc4CN(C)C)cc23)n1)C(=O)NCC(F)(F)F` [Example 15-13, N^2-[6-(5-{2-[(dimethylamino)methyl]-phenyl}-1H-pyrrolo(2,3-b]pyridin-3-yl)pyrazin-2-yl]-N-(2,2,2-trifluoroethyl)-D-alaninamide]: the IC50 fell in the range of 1 to 10 nM. For the compound `C[C@@H](Nc1cncc(-c2c[nH]c3ncc(-c4ccc(N5CCCC5)cc4)cc23)n1)C(=O)NCC(F)(F)F` [Example 15-17, N^2-{6-[5-(4-pyrrolidin-1-ylphenyl)-1H-pyrrolo[2,3-b]pyridin-3-yl]pyrazin-2-yl}-N-(2,2,2-trifluoroethyl)-D-alaninamide], the IC50 is at most 1 nM.

As to `C[C@@H](Nc1cncc(-c2c[nH]c3ncc(-c4ccnn4C)cc23)n1)C(=O)NCC(F)(F)F` [Example 15-5, N^2-{6-[5-(1-methyl-1H-pyrazol-5-yl)-1H-pyrrolo[2,3-b]pyridin-3-yl]pyrazin-2-yl}-N-(2,2,2-trifluoroethyl)-D-alaninamide], the IC50 lay within 1 to 10 nM.

The same assay, now with this note: recombinant purified GST-tagged catalytic domain, HTRF format, [ATP] 1.7 μM; read-out: rhJAK3 IC50.
In the case of `O=C(NCC(F)(F)F)[C@H]1CNCCN1C(=O)c1cncc(-c2c[nH]c3ncc(Cl)cc23)n1` [Example 7-1, (2R)-1-{[6-(5-chloro-1H-pyrrolo[2,3-b]pyridin-3-yl)-pyrazin-2-yl]carbonyl}-N-(2,2,2-trifluoroethyl)piperazine-2-carboxamide], the IC50 was in the range of 100 to 1000 nM.

Regarding `N#CCCNC(=O)Cc1cncc(-c2c[nH]c3ncc(Cl)cc23)n1` [Example 8-2, 2-[6-(5-chloro-1H-pyrrolo[2,3-b]-pyridin-3-yl)pyrazin-2-yl]-N-(2-cyanoethyl) acetamide], the IC50 was in the range of 100 to 1000 nM. For `C[C@@H](Nc1cncc(-c2c[nH]c3ncc(Cl)cc23)n1)C(=O)NCC(=O)NC1CCCC1` [Example 2-16, N-[6-(5-chloro-1H-pyrrolo[2,3-b]-pyridin-3-yl)pyrazin-2-yl]-D-alanyl-N-cyclopentylglycinamide], the 50% inhibitory concentration (IC50) fell in the range of 100 to 1000 nM.

`C[C@@H](Nc1cncc(-c2c[nH]c3ncc(C4CC4)cc23)n1)C(=O)NCC(F)(F)F` [Example 13, N^2-[6-(5-cyclopropyl-1H-pyrrolo[2,3-b]pyridin-3-yl)pyrazin-2-yl]-N-(2,2,2-trifluoroethyl)-D-alaninamide]: the IC50 is at most 1 nM.

Regarding `CC(C)[C@@H](Nc1cncc(-c2c[nH]c3ncc(Cl)cc23)n1)C(=O)NCC(F)(F)F` [Example 1-12, N^2-[6-(5-chloro-1H-pyrrolo[2,3-b]pyridin-3-yl)pyrazin-2-yl]-N-(2,2,2-trifluoroethyl)-D-valinamide], the IC50 was at most 1 nM. On the same count and under the same terms, for `O=C(NCC(F)(F)F)[C@H]1CC[C@H](Nc2cncc(-c3c[nH]c4ncc(Cl)cc34)n2)C1` [Example 1-4, (1S,3S)-3-{[6-(5-chloro-1H-pyrrolo[2,3-b]pyridin-3-yl)-pyrazin-2-yl]amino}-N-(2,2,2-trifluoroethyl)cyclopentane-carboxamide] the value was 10 to 100 nM; for `C[C@@H](Nc1cncc(-c2c[nH]c3ncc(Cl)cc23)n1)C(=O)NCc1ccc(C(F)(F)F)cc1` [Example 2-21, N^2-[6-(5-chloro-1H-pyrrolo[2,3-b]-pyridin-3-yl)pyrazin-2-yl]-N-[4-(trifluoromethyl)benzyl]-D-alaninamide], 100 to 1000 nM; for `C[C@@H](Nc1cncc(-c2c[nH]c3ncc(-c4cnn(C)c4)cc23)n1)C(=O)NCC(F)(F)F` [Example 14, N^2-{6-[5-(1-methyl-1H-pyrazol-4-yl)-1H-pyrrolo[2,3-b]pyridin-3-yl]pyrazin-2-yl}-N-(2,2,2-trifluoroethyl)-D-alaninamide], at most 1 nM.

Turning to “(2R)-1-[6-(5-chloro-1H-pyrrolo[2,3-b]- pyridin-3-yl)pyrazin-2-yl]-N-(2,2,2- trifluoroethyl)piperazine-2-carboxamide [Example 4-1]”, the IC50 was in the range of 10 to 100 nM. Turning to `O=C(NCCC(F)(F)F)C1(Nc2cncc(-c3c[nH]c4ncc(Cl)cc34)n2)CCCC1` [Example 2-26, 1-{[6-(5-chloro-1H-pyrrolo[2,3-b]pyridin-3-yl)pyrazin-2-yl]amino}-N-(3,3,3-trifluoropropyl)cyclopentanecarboxamide], the IC50 was 100 to 1000 nM.

On to `CC1(C(=O)NCC(F)(F)F)CCN1c1cncc(-c2c[nH]c3ncc(Cl)cc23)n1` (stereo not shown) [Example 1-9, 1-[6-(5-chloro-1H-pyrrolo[2,3-b]pyridin-3-yl)pyrazin-2-yl]-2-methyl-N-(2,2,2-trifluoroethyl)azetidine-2-carboxamide], for which the IC50 is at most 1 nM.

In the case of `O=C(Cc1cncc(-c2c[nH]c3ncc(Cl)cc23)n1)NCC(F)(F)F` [Example 8, 2-[6-(5-chloro-1H-pyrrolo[2,3-b]pyridin-3-yl)pyrazin-2-yl]-N-(2,2,2-trifluoroethyl)acetamide], the IC50 was in the range of 10 to 100 nM. Same read-out and setting: for `O=C(NCC(F)(F)F)[C@H]1CCCN1c1cncc(-c2c[nH]c3ncc(Cl)cc23)n1` [Example 1-6, 1-[6-(5-chloro-1H-pyrrolo[2,3-b]pyridin-3-yl)pyrazin-2-yl]-N-(2,2,2-trifluoroethyl)-D-prolinamide] the value was at most 1 nM; for `O=C(NCC(F)(F)F)[C@H]1CC[C@@H](Nc2cncc(-c3c[nH]c4ncc(Cl)cc34)n2)C1` [Example 1-2, (1S,3R)-3-{[6-(5-chloro-1H-pyrrolo[2,3-b]pyridin-3-yl)-pyrazin-2-yl]amino}-N-(2,2,2-trifluoroethyl)cyclopentane-carboxamide], 1 to 10 nM; for `C[C@@H](Nc1cncc(-c2c[nH]c3ncc(Cl)cc23)n1)C(=O)NCCc1cccs1` [Example 2-15, N^2-[6-(5-chloro-1H-pyrrolo[2,3-b]-pyridin-3-yl)pyrazin-2-yl]-N-(2-thiophen-2-ylethyl)-D-alaninamide], 100 to 1000 nM.

(Values after US20130040933A1, “AZAINDOLES AS JANUS KINASE INHIBITORS” (priority 2010, published 2013).)
